Key:
NCI/ADR-RES = assay: Antiproliferative activity against human NCI-ADR-RES cells measured after 48 hrs by SRB assay; type: functional, cell-based
ACHN = assay: Antiproliferative activity against human ACHN cells measured after 48 hrs by SRB assay; type: functional, cell-based
NCI-H322M = assay: Antiproliferative activity against human NCI-H322M cells measured after 48 hrs by SRB assay; type: functional, cell-based
KM12 = assay: Antiproliferative activity against human KM12 cells measured after 48 hrs by SRB assay; type: functional, cell-based
NCI-H522 = assay: Antiproliferative activity against human NCI-H522 cells measured after 48 hrs by SRB assay; type: functional, cell-based
HepG2 = assay: Antiproliferative activity against human HepG2 cells measured by MTT assay; type: functional, cell-based
MDA-MB-435 = assay: Antiproliferative activity against human MDA-MB-435 cells measured after 48 hrs by SRB assay; type: functional, cell-based
SK-MEL-28 = assay: Antiproliferative activity against human SK-MEL-28 cells measured after 48 hrs by SRB assay; type: functional, cell-based
DU-145 = assay: Antiproliferative activity against human DU-145 cells measured after 48 hrs by SRB assay; type: functional, cell-based
TK-10 = assay: Antiproliferative activity against human TK-10 cells measured after 48 hrs by SRB assay; type: functional, cell-based
NCI-H226 = assay: Antiproliferative activity against human NCI-H226 cells measured after 48 hrs by SRB assay; type: functional, cell-based
RPMI-8226 [1] = assay: Antiproliferative activity against human RPMI-8226 cells measured after 48 hrs by SRB assay; type: functional, cell-based
HCC 2998 = assay: Antiproliferative activity against human HCC 2998 cells measured after 48 hrs by SRB assay; type: functional, cell-based
HCT-15 = assay: Antiproliferative activity against human HCT-15 cells measured after 48 hrs by SRB assay; type: functional, cell-based
[2] = biological target: T1, Mitogen-activated protein kinase 10 (Homo sapiens, UniProt P53779); assay: Inhibition of JNK3 (unknown origin)
T1 sequence (P53779 whole entry): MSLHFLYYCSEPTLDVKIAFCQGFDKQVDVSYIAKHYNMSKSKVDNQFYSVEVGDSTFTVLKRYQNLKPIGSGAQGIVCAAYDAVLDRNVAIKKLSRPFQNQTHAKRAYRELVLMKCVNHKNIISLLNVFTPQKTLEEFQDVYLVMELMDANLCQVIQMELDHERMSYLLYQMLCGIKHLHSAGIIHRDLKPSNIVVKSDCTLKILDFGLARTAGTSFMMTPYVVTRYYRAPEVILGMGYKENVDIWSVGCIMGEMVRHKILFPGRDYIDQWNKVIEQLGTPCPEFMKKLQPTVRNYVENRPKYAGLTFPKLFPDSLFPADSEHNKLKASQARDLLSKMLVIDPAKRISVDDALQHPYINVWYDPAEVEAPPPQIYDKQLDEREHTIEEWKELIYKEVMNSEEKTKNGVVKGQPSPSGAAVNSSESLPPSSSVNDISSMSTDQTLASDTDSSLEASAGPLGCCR

[3] = biological target: T1, Mitogen-activated protein kinase 10; assay: Inhibition of JNK3 (unknown origin) at 1 uM relative to control
RPMI-8226 [4] = assay: Induction of apoptosis in human RPMI-8226 cells assessed as fold increase in caspase-3/7 activity at 6.12 uM; type: functional
RPMI-8226 [5] = assay: Induction of necrosis in human RPMI-8226 cells assessed as LDH release at 6.12 uM; type: functional
OVCAR-5 = assay: Antiproliferative activity against human OVCAR-5 cells measured after 48 hrs by SRB assay; type: functional, cell-based
CCRF-CEM = assay: Antiproliferative activity against human CCRF-CEM cells measured after 48 hrs by SRB assay; type: functional, cell-based
SNB-75 = assay: Antiproliferative activity against human SNB-75 cells measured after 48 hrs by SRB assay; type: functional, cell-based
T47D = assay: Antiproliferative activity against human T47D cells measured after 48 hrs by SRB assay; type: functional, cell-based
Hep 3B2 = assay: Antiproliferative activity against human Hep3B cells measured by MTT assay; type: functional, cell-based
HCT-116 = assay: Antiproliferative activity against human HCT-116 cells measured after 48 hrs by SRB assay; type: functional, cell-based
UO-31 = assay: Antiproliferative activity against human UO-31 cells measured after 48 hrs by SRB assay; type: functional, cell-based
MDA-MB-231 = assay: Antiproliferative activity against human MDA-MB-231 cells measured after 48 hrs by SRB assay; type: functional, cell-based
BT-549 = assay: Antiproliferative activity against human BT-549 cells measured after 48 hrs by SRB assay; type: functional, cell-based
RPMI-8226 [6] = assay: Induction of necrosis in human RPMI-8226 cells assessed as LDH release at 0.73 uM; type: functional

## O=C(NCCCNc1cc(-c2cn(-c3ccccc3)nc2-c2cccc(O)c2)ccn1)Nc1cccc(C(F)(F)F)c1
NCI/ADR-RES; 48 h
  IC50: 4.9 µM
NCI/ADR-RES; time 48 hrs
  TGI: 12.8 µM
ACHN; 48 h
  IC50: 5.24 µM
ACHN; time 48 hrs
  TGI: 15.5 µM
NCI-H322M; 48 h
  IC50: 4.24 µM
NCI-H322M; time 48 hrs
  TGI: 9.32 µM
KM12; KM12, 48 h
  IC50: 2.63 µM
KM12; KM12, time 48 hrs
  TGI: 7.39 µM
NCI-H522; NCI-H522, 48 h
  IC50: 5.12 µM
NCI-H522; NCI-H522, time 48 hrs
  TGI: 11 µM
HepG2
  IC50: 6.42 µM
MDA-MB-435; MDA-MB-435, 48 h
  IC50: 3.41 µM
MDA-MB-435; MDA-MB-435, time 48 hrs
  TGI: 7.57 µM
SK-MEL-28; SK-MEL-28, 48 h
  IC50: 3.48 µM
SK-MEL-28; SK-MEL-28, time 48 hrs
  TGI: 7.51 µM
DU-145; DU-145, 48 h
  IC50: 4.8 µM
DU-145; DU-145, time 48 hrs
  TGI: 11.9 µM
TK-10; TK-10, 48 h
  IC50: 5.75 µM
TK-10; TK-10, time 48 hrs
  TGI: 13.2 µM
NCI-H226; NCI-H226, 48 h
  IC50: 4.88 µM
NCI-H226; NCI-H226, time 48 hrs
  TGI: 11.5 µM
RPMI-8226 [1]; RPMI-8226, 48 h
  IC50: 0.73 µM
RPMI-8226 [1]; RPMI-8226, time 48 hrs
  TGI: 6.12 µM
HCC 2998; HCC 2998, 48 h
  IC50: 1.26 µM
HCC 2998; HCC 2998, time 48 hrs
  TGI: 4.34 µM
HCT-15; HCT-15, 48 h
  IC50: 1.06 µM
HCT-15; HCT-15, time 48 hrs
  TGI: 4.32 µM
[2]
  IC50: 0.474 µM
[3]
  inhibition: 73%
RPMI-8226 [4]
  fold change (FC): 2.83
RPMI-8226 [5]
  Activity: 34.5%
OVCAR-5; OVCAR-5, 48 h
  IC50: 3.96 µM
OVCAR-5; OVCAR-5, time 48 hrs
  TGI: 9.71 µM
CCRF-CEM; 48 h
  IC50: 1.71 µM
CCRF-CEM; time 48 hrs
  TGI: > 33.3 µM
SNB-75; SNB-75, 48 h
  IC50: 0.74 µM
SNB-75; SNB-75, time 48 hrs
  TGI: 4.1 µM
T47D; 48 h
  IC50: 3.42 µM
T47D; time 48 hrs
  TGI: 16.7 µM
Hep 3B2
  IC50: 4.9 µM
HCT-116; HCT-116, 48 h
  IC50: 1.97 µM
HCT-116; HCT-116, time 48 hrs
  TGI: 6.33 µM
UO-31; UO-31, 48 h
  IC50: 2.1 µM
UO-31; UO-31, time 48 hrs
  TGI: 10.8 µM
MDA-MB-231; MDA-MB-231, 48 h
  IC50: 2.85 µM
MDA-MB-231; MDA-MB-231, time 48 hrs
  TGI: 7.76 µM
BT-549; BT-549, 48 h
  IC50: 3.26 µM
BT-549; BT-549, time 48 hrs
  TGI: 7.63 µM
RPMI-8226 [6]
  Activity: 6.7%

From ChEMBL document CHEMBL5113453, “Design, synthesis, and biological evaluation of a new series of pyrazole derivatives: Discovery of potent and selective JNK3 kinase inhibitors” (Bioorg Med Chem, 2022)
